Legend:
CHO K1 cell line [1] = assay: Dye uptake flow cytometry MDR assay; format: cell-based, hamster; conditions: CHO K1, dye uptake;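 further: flow cytometry of dye-loaded cells, Kolmogorov-Smirnov D value (0 to 1.0) comparing fluorescence with versus without inhibitor, made negative when the uninhibited control was brighter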
Description: (§10) Concentrations of the modulators used in the experiments were non-toxic to the cells (based upon standard 3-(4,5-Dimethylthiazol-2-Yl)-2,5-Diphenyltetrazolium Bromide (MTT) testing, data not shown). Fluo-8™ was used in all experiments at 5 μM, and Rhod-4™—at 4 μM final concentrations.

A549 cell line [2] = assay: Dye uptake flow cytometry MDR assay; format: cell-based, human; conditions: A549, dye uptake
Description: as §10

HeLa cell line [3] = assay: Dye uptake flow cytometry MDR assay; format: cell-based, human; conditions: HeLa, dye uptake
Description: as §10

CHO K1 cell line [4] = assay: Dye efflux flow cytometry MDR assay; format: cell-based, hamster; design: key to D-value, Verapamil / D-value, Novobiocin: KS D value, 0 to 1; negative if control brighter than sample; conditions: CHO K1, dye efflux
From the text: (§1) Kolmogorov-Smirnov statistics measures the difference between two distribution functions and generates a D value ranging between 0 and 1.0, with higher values indicating a greater difference between the distribution functions. The D value generated by the KS statistics was modified by ascribing a negative value if the fluorescence of a negative control (no inhibitor) was brighter than the fluorescence of the sample with inhibitor. The method was one of those recommended by the First International MDR1 Methods Detection Workshop (St. Jude Children's Research Hospital, Memphis, Tenn.).
(§2) Cells were grown in tissue culture dishes and on the day of assay they were trypsinized and washed twice with ice-cold PBS. Post-wash, the cells were re-suspended in cold phenol red indicator-free medium at a density of 1×10^6/ml. For each detection set, eighteen tubes (6 tubes without inhibitor and 3 tubes for each inhibitor tested, in triplicates) each containing 2.5-5×10^5/cells were prepared. Cells were centrifuged at 200×g for 5 min, and after discarding supernatant, re-suspended at 1×10^6/ml in ice-cold indicator-free medium containing Fluo-8™ AM or Rhod-4™ AM probes. Additionally, an aliquot of non-stained cells was prepared for background fluorescence measurements. Cells were incubated with the probe(s) on ice for 60 min, than centrifuged at 200×g for 5 min. After discarding the supernatant, cells were either washed twice with PBS or simply were spun down to remove the excess of the probe and resuspended at 5×10^5 cells/sample in 0.5 ml of following solutions:
(§3) 1. warm (37° C.) indicator-free medium containing vehicle only (3 tubes)
(§4) 2. warm (37° C.) indicator-free medium containing inhibitor (3 tubes for each inhibitor tested)
(§5) 3. ice-cold indicator-free medium (3 tubes)
(§6) Tube sets 1 and 2 were immediately transferred to a water bath (37° C.) and incubated for 90 min. Tube set 3 was kept on ice. Post incubation, 4 ml of ice-cold indicator-free medium was added per tube, tubes were centrifuged at 200×g for 5 min, supernatant was discarded, and cell pellet was re-suspended in the cold indicator-free medium and centrifuged again. Finally, cells were re-suspended in 0.5 ml of cold indicator-free medium and maintained on ice until analysis. Alternatively, cells were analyzed without washing. Flow cytometry experiments were performed as described in Example 3.

A549 cell line [5] = assay: Dye efflux flow cytometry MDR assay; format: cell-based, human; design: key to D-value, Verapamil / D-value, Novobiocin: KS D value, 0 to 1; negative if control brighter than sample; conditions: A549, dye efflux
From the text: as §1, §2, §3, §4, §5, §6

HeLa cell line [6] = assay: Dye efflux flow cytometry MDR assay; format: cell-based, human; design: key to D-value, Verapamil / D-value, Novobiocin: KS D value, 0 to 1; negative if control brighter than sample
From the text: as §1, §2, §3, §4, §5, §6

HCT-8 cells = assay: Dye uptake flow cytometry MDR assay; format: cell-based, human; design: key: Kolmogorov-Smirnov D statistic comparing fluorescence distributions; conditions: HCT-8, dye uptake
Description: (§7) Cells were grown on tissue culture dishes and on the day of assay were trypsinized and washed twice with warm (37° C.) phosphate-buffered saline (PBS). Post-wash, the cells were re-suspended in warm phenol red indicator-free medium at a density of 1×10^6/ml. For each detection set, sixteen tubes (5 samples in triplicates plus non-stained control for background fluorescence) in numbered tubes each containing 5×10^5/cells (0.5 ml) were prepared. […] After incubation for 5 min at 37° C., 0.25 ml of warm medium with Fluo-8™ AM probe (5 μM final concentration) or Rhod-4™ AM probe (2 μM final concentration) was added to each tube excluding non-stained control that receives plain medium and cells were incubated for 30 min at 37° C. and analyzed immediately by flow cytometry. In the second set of the tubes, the reaction was stopped by rapid centrifugation (1 min) at relatively low speed (200×g). After wash with ice-cold PBS and discarding the supernatant, cells were re-suspended in 0.5 ml of ice-cold medium and kept on ice until flow cytometry analysis. The third set of cells simply was spun down (1 min, 200×g) to remove the excess of the probe, resuspended in ice-cold medium and kept on ice until flow cytometry analysis.
(§8) Flow cytometry experiments were performed using a FACS Calibur benchtop flow cytometer (BD Biosciences) equipped with a blue (488 nm) laser, and the signals were registered in the FITC (530/30 filter), PE (585/42 filter) and PerCP (670 LP filter) channels. Fluo-8™ dye fluorescence was measured in the FL1 channel, and Rhod-4™ dye fluorescence—in the FL2 channel. Flow cytometry data were analyzed by comparison of median fluorescence or using Kolmogorov-Smirnov statistics [Young, J Histochem Cytochem 25:935-941 (1977)] or by calculating MAF values (MDR Activity Factor) using the following formula: MAF=100*((MFIinh−MFI0)/MFIinh), where MFIinh and MFI0 are mean fluorescence intensity values measured in the presence and absence of inhibitor [Hollo et al., Biochem Piophys Acta. 1191:384-388 (1994)].
(§9) Both human ileocecal colorectal carcinoma cell line HCT-8 (reported to over-express P-gp and, to a lesser extent, MRP [Hunter et al., Br J Cancer. 64:437-444 (1991); Collington et al., Biochem Pharmacol 44:417-424 (1992)] and hepatocellular carcinoma Hep G2 (reported to over-express MRP [Roelofsen et al., Gastroenterology 112:511-521 (1997), Cantz et al., Am J Physiol Gastrointest Liver Physiol. 278:G522-G531 (2000)] were obtained from ATCC. HCT-8 cells were routinely cultured in RPMI-1640 Medium with 2 mM L-glutamine, 10 mM HEPES, 1 mM sodium piruvate, 4.5 g/L glucose, 1.5 g/L sodium bicarbonate (ATCC), supplemented with 10% horse serum (ATCC) and 100 U/ml penicillin, 100 ug/ml streptomycin (Sigma-Aldrich, St. Louis, Mo.). Hep G2 cells were routinely cultured in Eagle's Minimum Essential Medium with low glucose (ATCC), supplemented with 10% heat inactivated fetal bovine serum (ATCC) and 100 U/ml penicillin, 100 ug/ml streptomycin (Sigma-Aldrich, St. Louis, Mo.). Cell cultures were maintained in a humidified incubator at 37° C., with 5% CO2 atmosphere. Stock solutions of the probes and inhibitors were prepared, as described in Examples 2 and 3. Cells were grown in tissue culture dishes and on the day of assay were treated according to a dye uptake protocol and analyzed by flow cytometry, as described in Example 3.

Hep G2 cells = assay: Dye uptake flow cytometry MDR assay; format: cell-based, human; design: key: Kolmogorov-Smirnov D statistic comparing fluorescence distributions; conditions: HepG2, dye uptake
Description: as §7, §8, §9

[7] = average of three representative experiments (Table 6)
[8] = representative experiment (Table 8)
[9] = kept on ice without inhibitor (Table 9)
[10] = representative experiment (Table 9)

CC(=O)OCOC(=O)CN(CC(=O)OCOC(C)=O)Cc1cc2c(cc1OC(C)=O)Oc1cc(OC(C)=O)c(CN(CC(=O)OCOC(C)=O)CC(=O)OCOC(C)=O)cc1C21OC(=O)c2ccccc21 [Calcein AM]
D-value, Fumitremorgan C (CHO K1 cell line [1]; [7]): 0.17
D-value, Probenecid (CHO K1 cell line [1]; [7]): 0.77
D-value, Verapamil (CHO K1 cell line [1]; [7]): 0.74
D-value, Cyclosporine A (CHO K1 cell line [1]; [8]): 0.96
D-value, Novobiocin (CHO K1 cell line [1]; [8]): 0.06
D-value, Probenecid (CHO K1 cell line [1]; [8]): 0.70
D-value, Verapamil (CHO K1 cell line [1]; [8]): 0.93
D-value, Fumitremorgan C (A549 cell line [2]; [7]): 0.04
D-value, Probenecid (A549 cell line [2]; [7]): 0.36
D-value, Verapamil (A549 cell line [2]; [7]): 0.17
D-value, Cyclosporine A (A549 cell line [2]; [8]): 0.47
D-value, Novobiocin (A549 cell line [2]; [8]): 0.03
D-value, Probenecid (A549 cell line [2]; [8]): 0.27
D-value, Verapamil (A549 cell line [2]; [8]): 0.15
D-value, Fumitremorgan C (HeLa cell line [3]; [7]): 0.03
D-value, Probenecid (HeLa cell line [3]; [7]): 0.06
D-value, Verapamil (HeLa cell line [3]; [7]): 0.17
D-value, Cyclosporine A (HeLa cell line [3]; [8]): 0.14
D-value, Novobiocin (HeLa cell line [3]; [8]): 0.09
D-value, Probenecid (HeLa cell line [3]; [8]): 0.09
D-value, Verapamil (HeLa cell line [3]; [8]): 0.13
D-value, 4° C. (CHO K1 cell line [4]; [9]): 0.65
D-value, Cyclosporine A (CHO K1 cell line [4]; [10]): 0.31
D-value, Novobiocin (CHO K1 cell line [4]; [10]): 0.13
D-value, Probenecid (CHO K1 cell line [4]; [10]): 0.47
D-value, Verapamil (CHO K1 cell line [4]; [10]): 0.26
D-value, 4° C. (A549 cell line [5]; [9]): 0.50
D-value, Cyclosporine A (A549 cell line [5]; [10]): 0.35
D-value, Novobiocin (A549 cell line [5]; [10]): 0.15
D-value, Probenecid (A549 cell line [5]; [10]): 0.40
D-value, Verapamil (A549 cell line [5]; [10]): 0.03
D-value, 4° C. (HeLa cell line [6]; [9]): 0.07
D-value, Cyclosporine A (HeLa cell line [6]; [10]): 0.08
D-value, Novobiocin (HeLa cell line [6]; [10]): 0.04
D-value, Probenecid (HeLa cell line [6]; [10]): 0.62
D-value, Verapamil (HeLa cell line [6]; [10]): 0.1
D-value, CyclosporinA (HCT-8 cells): 0.31
D-value, MK-571 (HCT-8 cells): 0.16
D-value, Novobiocin (HCT-8 cells): 0.44
D-value, Verapamil (HCT-8 cells): 0.71
D-value, CyclosporinA (Hep G2 cells): 0.29
D-value, MK-571 (Hep G2 cells): 0.29
D-value, Novobiocin (Hep G2 cells): 0.02
D-value, Verapamil (Hep G2 cells): 0.13
